Measurements reported in PMC8749556, “Functional Characterization of Melanocortin-3 Receptor in a Hibernating Cavefish Onychostoma macrolepis” (Animals : an Open Access Journal from MDPI, 2021).
Entries after “also recorded” stand apart in the source; their conditions may differ.

Legend:
[1] = tested on: Mc3r of spiny dogfish; details: ref [3]; cited from earlier work
[2] = tested on: Mc3r of channel catfish; details: ref [12]; cited from earlier work
[3] = molecular target: omMc3r; experiment: cAMP signaling, CRE luciferase reporter (pGL4.29) assay; assay type: cell-based, Onychostoma macrolepis; details: pGL4.29 (CRE) luciferase reporter
Experimental: (§1) In order to test whether omMc3r can be activated by ligands in vitro, we sub-cloned the coding region of omMc3r into pcDNA3.1 (+) vector (Invitrogen, Carlsbad, CA, USA) for subsequent transfection of cells. The constructed vector was further verified by sequencing before use.
(§2) Human embryonic kidney (HEK293T) cells were cultured in Dulbecco modified Eagle’s medium (DMEM, Invitrogen, Carlsbad, CA, USA) supplemented with 10% fetal bovine serum (FBS, Biological Industries, Kibbutz Beit Haemek, Israel) and placed in a humid environment containing 5% CO2 at 37 °C. Cells were passaged every 2 days.
(§3) This study employed the luciferase reporter system to examine whether the four ligands can activate downstream signals through omMc3r. The luciferase reporter vector pGL4.29 and pGL4.33 of Promega (Madison, WI, USA) contain cAMP respose element (CRE) and serum response element (SRE) in their promoter regions, which can monitor the activation of cAMP and MAPK/ERK signaling pathways, respectively. The brief operating procedure was as follows: the HEK293T cells were passaged to a 6-well plate 24 h before transfection. […] An Infinite F200 microplate reader (Tecan, Männedorf, Switzerland) was used to measure the luciferase activities. […]

[4] = molecular target: omMc3r; experiment: MAPK/ERK (ERK1/2) signaling, SRE luciferase reporter (pGL4.33) assay; assay type: cell-based, Onychostoma macrolepis
Experimental: as §1, §2, §3

[5] = tested on: Human MC3R; details: ref [3]; cited from earlier work

For adrenocorticotropin [ACTH], the “ligand affinity of spiny dogfish Mc3r (in words)” value [1] is given as “highest affinity” and the “ligand affinity of channel catfish Mc3r (in words)” value [2] is given as “highest affinity”.
In the case of “β-melanocyte-stimulating hormone [β-MSH]”, the EC50 ([3]; HEK293T cells transiently transfected with omMc3r plasmid, ligand 6 h in serum-free DMEM, fold change vs serum-free DMEM, nonlinear regression, mean ± SEM (n = 3, figure legend: mean (SD) of three independent experiments), read-out: EC50, cAMP Response) is reported as 270 ± 4.95 nM, the “activation of cAMP signaling through omMc3r (in words)” value ([3]; HEK293T cells, ligand 6 h) is reported as “can all activate the cAMP and MAPK/ERK signaling pathway; also recorded: can activate cAMP and MAPK/ERK signaling pathways in a dose-dependent manner; also recorded: could potently activate the Gαs-cAMP and MAPK/ERK signaling pathway through omMc3r; also recorded: could activate cAMP and the MAPK/ERK signaling through omMc3r with different degrees of potency” and the EC50 ([4]; HEK293T cells co-transfected with omMc3r plasmid and pGL4.33 (SRE) luciferase reporter, ligand 6 h in serum-free DMEM, fold change vs serum-free DMEM, nonlinear regression, mean ± SEM (n = 3, figure legend: mean (SD) of three independent experiments), read-out: EC50, ERK1/2 Response) is reported as 4850 ± 10.7 nM. For the same substance, the “activation of MAPK/ERK signaling through omMc3r (in words)” value ([4]; HEK293T cells, pGL4.33 (SRE) luciferase reporter, ligand 6 h) was “can all activate the cAMP and MAPK/ERK signaling pathway; also recorded: can activate cAMP and MAPK/ERK signaling pathways in a dose-dependent manner; also recorded: could potently activate the Gαs-cAMP and MAPK/ERK signaling pathway through omMc3r; also recorded: could activate cAMP and the MAPK/ERK signaling through omMc3r with different degrees of potency”.
In the case of “γ-melanocyte-stimulating hormone [γ-MSH]”, the “ligand preference of human MC3R (in words)” value [5] is given as “unique preference”.
